Reference: ChEMBL document CHEMBL4130636, “Contilisant, a Tetratarget Small Molecule for Alzheimer's Disease Therapy Combining Cholinesterase, Monoamine Oxidase Inhibition, and H3R Antagonism with S1R Agonism Profile” (J Med Chem, 2018)
Each block holds one molecule with its values, some of them ahead of it. Active and inactive are the calls of the source. The rule behind the calls is not given here.

Experiments:
[1] = biological target: T1, Sigma intracellular receptor 2 (Rattus norvegicus, UniProt Q5U3Y7); experiment: Displacement of [3H]DTG from sigma2 receptor in rat liver membranes after 60 mins by liquid scintillation counting method; assay type: cell membranes, Membrane
T1 sequence (Q5U3Y7 whole entry): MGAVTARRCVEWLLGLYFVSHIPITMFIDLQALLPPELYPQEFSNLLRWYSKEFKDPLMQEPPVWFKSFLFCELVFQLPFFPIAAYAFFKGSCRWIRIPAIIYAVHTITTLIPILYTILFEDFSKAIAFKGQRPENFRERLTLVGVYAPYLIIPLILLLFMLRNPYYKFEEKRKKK

[2] = biological target: T2, Vesicular acetylcholine transporter (Rattus norvegicus, UniProt Q62666); experiment: Displacement of (-)-[3H]vesamicol from rat VAChT expressed in rat PC12 cell membranes after 60 mins by liquid scintillation counting method
T2 sequence (Q62666 whole entry): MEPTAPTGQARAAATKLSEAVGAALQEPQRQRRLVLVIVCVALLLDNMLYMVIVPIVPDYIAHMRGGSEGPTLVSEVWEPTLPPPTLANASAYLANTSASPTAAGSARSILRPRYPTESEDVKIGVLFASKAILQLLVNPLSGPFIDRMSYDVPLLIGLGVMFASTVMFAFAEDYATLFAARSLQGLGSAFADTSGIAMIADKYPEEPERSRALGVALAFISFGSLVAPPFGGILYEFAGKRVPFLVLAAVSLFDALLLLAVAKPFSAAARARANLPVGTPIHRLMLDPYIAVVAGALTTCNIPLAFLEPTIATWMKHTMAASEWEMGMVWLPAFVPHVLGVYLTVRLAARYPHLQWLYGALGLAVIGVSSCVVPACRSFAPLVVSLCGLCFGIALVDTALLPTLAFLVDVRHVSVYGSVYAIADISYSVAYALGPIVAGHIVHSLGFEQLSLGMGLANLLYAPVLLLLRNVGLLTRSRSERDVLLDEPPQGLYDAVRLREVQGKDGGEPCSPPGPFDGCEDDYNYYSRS

Histamine H3 receptor = Histamine H3 receptor (Homo sapiens, UniProt Q9Y5N1); experiment: Displacement of [3H]-N-alpha-methylhistamine from human H3R expressed in HEK293 cell membranes after 90 mins by liquid scintillation counting method
Chain of Histamine H3 receptor (Q9Y5N1 whole entry): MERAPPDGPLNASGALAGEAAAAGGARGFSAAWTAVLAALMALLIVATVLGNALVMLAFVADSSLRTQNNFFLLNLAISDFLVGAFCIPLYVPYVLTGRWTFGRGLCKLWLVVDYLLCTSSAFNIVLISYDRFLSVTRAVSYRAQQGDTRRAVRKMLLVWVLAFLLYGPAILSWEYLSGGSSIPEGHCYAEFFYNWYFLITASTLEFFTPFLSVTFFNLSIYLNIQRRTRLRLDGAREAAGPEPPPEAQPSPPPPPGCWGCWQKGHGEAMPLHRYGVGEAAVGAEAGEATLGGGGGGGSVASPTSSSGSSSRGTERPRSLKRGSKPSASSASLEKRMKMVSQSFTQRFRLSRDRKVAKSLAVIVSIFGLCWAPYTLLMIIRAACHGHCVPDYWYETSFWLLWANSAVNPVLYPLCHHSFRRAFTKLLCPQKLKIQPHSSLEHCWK

Mus musculus [3] = experiment: Induction of memory damage in Balb/c mouse at 1 to 10 mg/kg, po qd via gavage for 17 measured on day 14 by Y-maze test; assay type: organism-based; conditions: in vivo
Mus musculus [4] = experiment: In vivo agonist activity at sigma1 receptor in sc dosed capsaicin-induced mechanical allodynia CD-1 mouse model assessed as decrease in paw withdrawal latency pretreated for 30 mins followed by capsaicin treatment measured after 2 hrs; assay type: functional, organism-based
Mus musculus [5] = experiment: (§1) Cognitive enhancing effect in amyloid beta (1 to 42)-induced dementia Balb/c mouse model assessed as protection against spatial memory impairment by measuring reduction in total errors to find food on second, third and fourth days of test at 1 to 10 mg/kg, po qd via gavage for 17 days starting from 24 hrs post amyloid beta (1 to 42) oligomer treatment measured on day 14 by radial arm-maze test; assay type: functional, organism-based
Mus musculus [6] = experiment: as §1, with “latency” for “reduction in total errors”; assay type: functional, organism-based
[7] = biological target: Sigma non-opioid intracellular receptor 1 (Homo sapiens, UniProt Q99720); experiment: Displacement of (+)-[3H]pentazocine from human sigma1 receptor expressed in HEK293 cell membranes after 60 mins by liquid scintillation counting method
Chain of Sigma non-opioid intracellular receptor 1 (Q99720 whole entry): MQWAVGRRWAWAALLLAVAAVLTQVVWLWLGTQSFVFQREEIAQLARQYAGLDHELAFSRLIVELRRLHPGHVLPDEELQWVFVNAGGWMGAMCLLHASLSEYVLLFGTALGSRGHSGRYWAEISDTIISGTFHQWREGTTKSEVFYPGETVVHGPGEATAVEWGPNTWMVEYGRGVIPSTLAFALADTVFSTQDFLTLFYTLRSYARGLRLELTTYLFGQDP

Cholinesterase = Cholinesterase (Homo sapiens, UniProt P06276); experiment: Inhibition of human plasma BuChE using acetylthiocholine iodide as substrate by Ellman's method
Chain of Cholinesterase (P06276 whole entry): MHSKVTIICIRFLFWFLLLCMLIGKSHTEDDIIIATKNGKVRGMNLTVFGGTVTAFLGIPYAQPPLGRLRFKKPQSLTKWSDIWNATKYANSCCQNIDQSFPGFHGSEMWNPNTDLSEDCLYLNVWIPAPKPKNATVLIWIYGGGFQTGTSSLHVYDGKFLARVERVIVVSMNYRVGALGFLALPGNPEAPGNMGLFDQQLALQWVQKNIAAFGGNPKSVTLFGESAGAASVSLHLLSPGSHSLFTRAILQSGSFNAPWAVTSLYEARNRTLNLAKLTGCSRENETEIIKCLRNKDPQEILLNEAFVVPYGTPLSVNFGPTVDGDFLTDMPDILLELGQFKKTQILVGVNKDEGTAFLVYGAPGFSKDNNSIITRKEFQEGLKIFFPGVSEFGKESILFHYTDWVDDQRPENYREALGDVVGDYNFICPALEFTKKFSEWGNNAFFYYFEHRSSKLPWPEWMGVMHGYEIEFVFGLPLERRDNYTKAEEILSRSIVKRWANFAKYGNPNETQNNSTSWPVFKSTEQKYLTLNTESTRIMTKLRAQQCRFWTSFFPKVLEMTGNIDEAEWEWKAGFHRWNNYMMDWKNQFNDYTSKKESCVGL

Acetylcholinesterase = Acetylcholinesterase (Homo sapiens, UniProt P22303); experiment: Inhibition of recombinant human AChE using acetylthiocholine iodide as substrate by Ellman's method
Chain of Acetylcholinesterase (P22303 whole entry): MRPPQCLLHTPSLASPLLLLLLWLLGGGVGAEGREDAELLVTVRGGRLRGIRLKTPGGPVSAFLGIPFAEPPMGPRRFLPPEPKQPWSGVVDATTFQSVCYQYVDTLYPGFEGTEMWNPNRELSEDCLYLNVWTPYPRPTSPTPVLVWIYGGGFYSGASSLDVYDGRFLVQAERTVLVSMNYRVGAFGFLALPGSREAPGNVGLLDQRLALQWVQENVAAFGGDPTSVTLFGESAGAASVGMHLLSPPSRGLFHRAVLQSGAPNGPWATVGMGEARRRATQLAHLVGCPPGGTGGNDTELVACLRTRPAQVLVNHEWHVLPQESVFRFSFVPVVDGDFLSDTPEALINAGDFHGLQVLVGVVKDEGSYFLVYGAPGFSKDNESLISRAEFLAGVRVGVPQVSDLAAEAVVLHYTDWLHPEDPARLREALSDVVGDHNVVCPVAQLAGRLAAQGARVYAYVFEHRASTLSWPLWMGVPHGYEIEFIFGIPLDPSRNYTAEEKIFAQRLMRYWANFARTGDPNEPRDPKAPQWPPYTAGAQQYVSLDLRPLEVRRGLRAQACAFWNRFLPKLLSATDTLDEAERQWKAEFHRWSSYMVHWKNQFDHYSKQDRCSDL

Mus musculus [8] = experiment: Cognitive enhancing effect in Balb/c mouse assessed as protection against amyloid beta (1 to 42) oligomers-induced memory damage at 1 to 10 mg/kg, po qd via gavage for 17 days starting from 24 hrs post amyloid beta (1 to 42) oligomer treatment measured on day 14 by Y-maze test; assay type: functional, organism-based
Mus musculus [9] = experiment: Cognitive enhancing effect in Balb/c mouse assessed as protection against amyloid beta (1 to 42) oligomers-induced memory damage at 10 mg/kg, po qd via gavage for 17 days starting from 24 hrs post amyloid beta (1 to 42) oligomer treatment measured on day 14 by Y-maze test; assay type: functional, organism-based
Mus musculus [10] = experiment: as §1, with “latency” for “reduction in total errors”, “on” for “on second,”, “at” for “at 1 to”; assay type: functional, organism-based
Mus musculus [11] = experiment: as §1, with “on” for “on second,”, “at” for “at 1 to”; assay type: functional, organism-based
Mus musculus [12] = experiment: In vivo antagonist activity at sigma1 receptor in sc dosed capsaicin-induced mechanical allodynia CD-1 mouse model assessed as increase in paw withdrawal latency pretreated for 30 mins followed by capsaicin treatment measured after 2 hrs; assay type: functional, organism-based
Mus musculus [13] = experiment: as §1, with “on” for “on second,”; assay type: functional, organism-based
Mus musculus [14] = experiment: as §1, with “measuring latency” for “measuring reduction in total errors”, “on” for “on second, third and”, “fourth day” for “fourth days”; assay type: functional, organism-based
[15] = Selectivity ratio of Ki for sigma2 receptor in rat liver membranes to Ki for human sigma1 receptor expressed in HEK293 cell membranes; assay type: cell-based

- Ki [1]: 62.2 nM
- Ki [2]: 492 nM
Structure (SMILES): COc1ccc(CCN2CCN(CCCc3ccccc3)CC2)cc1OC [[11C]SA4503]

Structure (SMILES): C#CCN(C)Cc1cc2cc(OCCCN3CCCCC3)ccc2n1C
- Ki (Histamine H3 receptor): 10.8 nM
- Ki [1]: 326 nM
- Activity (Mus musculus [3]): Non-Toxic
- Activity (Mus musculus [4]): Dose-dependent effect
- Activity (Mus musculus [5]): Active
- Activity (Mus musculus [6]): Active
- Ki [7]: 65.2 nM
- IC50 (Cholinesterase): 1690 nM
- IC50 (Acetylcholinesterase): 530 nM
- Activity (Mus musculus [8]): Active
- Ki [2]: 46.3 nM

Structure (SMILES): COc1cc2c(cc1OC)C(=O)C(CC1CCN(Cc3ccccc3)CC1)C2 (stereo not given)
- Activity (Mus musculus [9]): Active
- Activity (Mus musculus [10]): Active
- Activity (Mus musculus [11]): Active

Structure (SMILES): OC1CCCCC1N1CCC(c2ccccc2)CC1 (racemic)
- Ki [1]: 63.4 nM

- Ki [1]: 50.3 nM
- Ki [7]: 2.83 nM
- Ki [2]: 2.58 nM
Structure (SMILES): C#CCN(C)Cc1cc2cc(OCCCC3CCN(Cc4ccccc4)CC3)ccc2n1C
- inhibition (Mus musculus [12]): Dose-dependent effect
- Activity (Mus musculus [13]): Active
- Activity (Mus musculus [14]): Active
- Activity (Mus musculus [8]): Active
- Ratio Ki [15]: 18
